Key:
[1] = test system: L. acidophilus NCFM (LA-1); assay: Growth (turbidity) and lactic acid producing activity in MRS broth, L. acidophilus NCFM; type: cell-based, Lactobacillus acidophilus
Experimental: Prebiotic formulations are often probiotic strain dependent. […] At specified time intervals, a 30 ml sample from each flask was aseptically transferred into a HACH […] Turbidimeter sample cell. The turbidity of each sample was read and the results were reported in NTU's. The same 30 ml sample used for the turbidity reading was transferred into a 250 ml glass beaker, and the pH was recorded. The sample was titrated using 0.1N NaOH to an endpoint of pH 6.8, and the quantity of NaOH used was recorded. The % Lactic Acid was calculated using the following formula: % Lactic Acid=((mls of 0.1N NaOH)×(0.1N)×(90 gm/mole)×(1 L/1000 ml))×100 mls of sample % Lactic Acid=(mls of 0.1N NaOH)×(0.9) (Results reported at 12 hours and 23 hours like: 12/23 in Table I below)

[2] = test system: Bifidobacterium lactis Bl-04 (BL-34); assay: Growth (turbidity) and lactic acid producing activity in MRS broth, B. lactis Bl-04; type: cell-based; conditions: additive 0.1% in MRS (polysorbate 80 control: 1.0 g per liter)
Experimental: (§1) Prebiotic formulations are often probiotic strain dependent. Some Lactobacillus strains, for example, respond best to a form of lecithin derived from sunflowers (Sunflower Lecithin) while others show no preference to lecithin type and respond equally well to soy lecithin. Other strains show a synergistic response when lecithin is used together with oleic acid. […] Each flask was tempered to 37° C. and aseptically inoculated with 0.14 gm of the individual probiotic strains (in Examples 5 to 10 below) to be tested. At specified time intervals, a 30 ml sample from each flask was aseptically transferred into a HACH […] Turbidimeter sample cell. The turbidity of each sample was read and the results were reported in NTU's. The same 30 ml sample used for the turbidity reading was transferred into a 250 ml glass beaker, and the pH was recorded. The sample was titrated using 0.1N NaOH to an endpoint of pH 6.8, and the quantity of NaOH used was recorded. The % Lactic Acid was calculated using the following formula: % Lactic Acid=((mls of 0.1N NaOH)×(0.1N)×(90 gm/mole)×(1 L/1000 ml))×100 mls of sample % Lactic Acid=(mls of 0.1N NaOH)×(0.9) (Results reported at 12 hours and 23 hours like: 12/23 in Table II below)

[3] = test system: Lactobacillus paracasei Lpc-37 (F-19); assay: Growth (turbidity) and lactic acid producing activity in MRS broth, L. paracasei Lpc-37; type: cell-based; conditions: for Lactic Acid % / NTU (Turbidity) / pH: additive 0.1% in MRS (polysorbate 80 control: 1.0 g per liter)
Experimental: as §1, with “III” for “II”

[4] = test system: Lactobacillus rhamnosus Lr-32 (LR-44); assay: Growth (turbidity) and lactic acid producing activity in MRS broth, L. rhamnosus Lr-32; type: cell-based; conditions: for Lactic Acid % / NTU (Turbidity) / pH: additive 0.1% in MRS (polysorbate 80 control: 1.0 g per liter)
Experimental: as §1, with “IV” for “II”

[5] = test system: Lactobacillus salivarius Ls-33 (LS-30); assay: Growth (turbidity) and lactic acid producing activity in MRS broth, L. salivarius Ls-33; type: cell-based; conditions: for Lactic Acid % / NTU (Turbidity) / pH: additive 0.1% in MRS (polysorbate 80 control: 1.0 g per liter)
Experimental: as §1, with “V” for “II”

[6] = test system: THERALAC® Lot # 32310A probiotic strains; assay: Growth of the commercial probiotic Theralac in MRS broth (Example 10); type: cell-based, Lactobacillus and Bifidobacterium strains; conditions: for Lactic Acid % / pH / NTU (Turbidity): additive 0.1% in MRS (polysorbate 80 control: 1.0 g per liter); for NTU (Turbidity): inoculated at 0.1% with THERALAC
Experimental: MRS broth was prepared with (for controls) and without (for tests) polysorbate 80 and filled into 1 liter screw cap flasks at 500 ml each and autoclaved at 121° C. for 30 minutes. Various lecithin and/or oleic acid additives, or nothing (negative control), was added to the tests flasks prior to autoclaving. The flasks were then tempered to 37° C. in a water bath and inoculated at 0.1% with […]® Lot # 32310A, a commercial probiotic product (Master Supplements, Inc., Victoria, Minn.). Capsules of […]® were opened and the contents mixed aseptically to serve as the inoculum source. At an inoculation rate of 0.1%, approximately 80 million CFU was added per ml of MRS media. […]® contains (formulation strength) the following probiotic strains at the approximate CFU values listed per gram: Lactobacillus acidophilus NCFM (LA-1): 30 billion CFU Bifidobacterium lactis Bl-04 (BL-34): 30 billion CFU Lactobacillus paracasei Lpc-37 (F-19): 14 billion CFU Lactobacillus rhamnosus Lr-32 (LR-44): 6 billion CFU Bifidobacterium lactis Bi-07: 8 billion CFU Turbidity, pH and titrations (made with 0.1 N NaOH and reported as % lactic acid) were made at various times up to 23 hours. The results are presented below in Table VI for the 12 and 23-hour analyses.

[7] = additive 0.1% in MRS (polysorbate 80 control: 1.0 g per liter), 37° C., 12 hours
[8] = additive 0.1% in MRS (polysorbate 80 control: 1.0 g per liter), 37° C., 23 hours
[9] = additive 0.1% in MRS (polysorbate 80 control: 1.0 g per liter), 12 hours
[10] = additive 0.1% in MRS (polysorbate 80 control: 1.0 g per liter), 23 hours
[11] = additive 0.025% in MRS, 12 hours
[12] = additive 0.025% in MRS, 23 hours
[13] = at the concentrations studied (0.1% + 0.1%)

polysorbate 80 [reference compound]
NTU (Turbidity) [1, 7]: 1855 NTU | NTU (Turbidity) [1, 8]: 2038 NTU | Lactic Acid % [1, 9]: 1.09% | pH [1, 9]: 4.2 | Lactic Acid % [1, 10]: 1.27% | pH [1, 10]: 4.1 | Lactic Acid % ([2]; 12 hours): 0.57% | NTU (Turbidity) ([2]; 12 hours): 922 NTU | pH ([2]; 12 hours): 4.8 | Lactic Acid % ([2]; 23 hours): 0.84% | NTU (Turbidity) ([2]; 23 hours): 1434 NTU | pH ([2]; 23 hours): 4.5 | Lactic Acid % ([3]; 12 hours): 0.99% | NTU (Turbidity) ([3]; 12 hours): 1664 NTU | pH ([3]; 12 hours): 4.2 | Lactic Acid % ([3]; 23 hours): 1.39% | NTU (Turbidity) ([3]; 23 hours): 2824 NTU | pH ([3]; 23 hours): 3.9 | Lactic Acid % ([4]; 12 hours): 1.12% | NTU (Turbidity) ([4]; 12 hours): 2804 NTU | pH ([4]; 12 hours): 4.0 | Lactic Acid % ([4]; 23 hours): 1.67% | NTU (Turbidity) ([4]; 23 hours): 3776 NTU | pH ([4]; 23 hours): 3.7 | Lactic Acid % ([5]; 12 hours): 1.42% | NTU (Turbidity) ([5]; 12 hours): 3426 NTU | pH ([5]; 12 hours): 3.8 | Lactic Acid % ([5]; 23 hours): 1.68% | NTU (Turbidity) ([5]; 23 hours): 3931 NTU | pH ([5]; 23 hours): 3.7 | Lactic Acid % ([6]; 12 hours): 1.42% | pH ([6]; 12 hours): 3.9 | Lactic Acid % ([6]; 23 hours): 1.84% | pH ([6]; 23 hours): 3.7 | NTU (Turbidity) ([6]; 12 hours): 3311 NTU | NTU (Turbidity) ([6]; 23 hours): 3694 NTU

CCCCCCCC/C=C\CCCCCCCC(=O)O [Oleic Acid, oleic acid]
effectiveness as polysorbate 80 replacement (conclusion) ([1]; 0.1% inclusion rate in MRS): somewhat effective | Lactic Acid % [1, 11]: 0.70% | pH [1, 11]: 4.5 | Lactic Acid % [1, 12]: 0.77% | NTU (Turbidity) [1, 12]: 603 NTU | pH [1, 12]: 4.4 | NTU (Turbidity) [1, 7]: 1451 NTU | NTU (Turbidity) [1, 8]: 1789 NTU | Lactic Acid % [1, 9]: 1.03% | pH [1, 9]: 4.3 | Lactic Acid % [1, 10]: 1.21% | pH [1, 10]: 4.1 | effectiveness as polysorbate 80 replacement (conclusion) ([3]; 0.1% inclusion rate in MRS): not as effective a replacement for polysorbate 80 as sunflower lecithin | Lactic Acid % ([3]; 12 hours): 0.33% | NTU (Turbidity) ([3]; 12 hours): 178 NTU | pH ([3]; 12 hours): 5.1 | Lactic Acid % ([3]; 23 hours): 1.01% | NTU (Turbidity) ([3]; 23 hours): 1789 NTU | pH ([3]; 23 hours): 4.1 | synergy of oleic acid with sunflower lecithin (conclusion) [3, 13]: does not appear to be synergistic | lag phase ([4]; 0.1% in MRS, at 12 hours): significant lag phase | effectiveness as polysorbate 80 replacement (conclusion) ([4]; 0.1% inclusion rate in MRS): not as good a replacement for polysorbate 80 as sunflower lecithin | Lactic Acid % ([4]; 12 hours): 0.072% | NTU (Turbidity) ([4]; 12 hours): −30.9 NTU | pH ([4]; 12 hours): 6.2 | Lactic Acid % ([4]; 23 hours): 1.05% | NTU (Turbidity) ([4]; 23 hours): 2644 NTU | pH ([4]; 23 hours): 4.1 | synergy of oleic acid with sunflower lecithin (conclusion) [4, 13]: not synergistic | lag phase ([5]; 0.1% in MRS, at 12 hours): a lag phase is apparent | effectiveness as polysorbate 80 replacement (conclusion) ([5]; 0.1% inclusion rate in MRS): not as good a replacement | Lactic Acid % ([5]; 12 hours): 0.073% | NTU (Turbidity) ([5]; 12 hours): 1440 NTU | pH ([5]; 12 hours): 4.4 | Lactic Acid % ([5]; 23 hours): 1.51% | NTU (Turbidity) ([5]; 23 hours): 3578 NTU | pH ([5]; 23 hours): 3.8 | effectiveness as polysorbate 80 replacement (conclusion) ([6]; 0.1% inclusion rate in MRS): acceptable replacement value | Lactic Acid % ([6]; 12 hours): 1.18% | pH ([6]; 12 hours): 4.1 | Lactic Acid % ([6]; 23 hours): 1.72% | pH ([6]; 23 hours): 3.8 | NTU (Turbidity) ([6]; 12 hours): 2775 NTU | NTU (Turbidity) ([6]; 23 hours): 3529 NTU

From patent publication US20120009164A1, “Increasing Probiotic Growth Rate and Activity Using Prebiotic Composition” (MASTER SUPPLEMENTS, INC., priority 2010, published 2012)
